In US12678400B2, “Implantable devices for drug delivery with reduced burst release” (TITAN PHARMACEUTICALS, INC., priority 2016, dated 2026):

Test: Particle size of spray-dried porogen powders by optical microscope
Assay type: physicochemical
Conditions: spray dried from ethanol solution
Text: Citric acid and benzoic acid were spray dried from ethanol solution (10% w/v solids) using a ProCepT model 4M8 system. The citric acid was collected in a single fraction in about 65% yield, while the benzoic acid was collected in two fractions with a total yield of around 55%. The powders were characterized for particle size and morphology using an Olympus BX60 optical microscope. […] The two preparations of benzoic acid differed primarily by the preponderance of ribbon-like particles in the second fraction. The citric acid powder blend was appreciably more dense than the benzoic acid powder blends, and the latter required more careful sweeping of the feeder hopper to promote conveyance. However, the ultimate extrusion, molding, and physical handling characteristics were similar between the blends.

Structure (SMILES) | Particle size
O=C(O)c1ccccc1 [benzoic acid] | 30-150 μm
O=C(O)CC(O)(CC(=O)O)C(=O)O [citric acid] | 10-20 μm
